Where “and” joins values, the source holds several entries; their conditions need not be identical. Equal values may be shown once. Read-outs that look alike come from different tables or passages of the source. Bridge positions count the residues as written; N and C are the ends. Square brackets hold non-standard residues; d marks the D form. Peptide text beside a SMILES is read from it. * marks the point of attachment. X1 = C=CCN1CC[C@]23c4c5ccc(O)c4O[C@H]2[C@H](N*)CC[C@@]3(O)[C@H]1C5
Columns and labels:
mouse MOR = target: T1, mouse MOR (Mus musculus, UniProt P42866); assay: Schild regression vs DAMGO in cAMP assay, HEK293 cells; type: cell-based; conditions: for log (A'/A-1): Schild plot Figure S14c; for average functional affinity: from pA2
T1 construct: expressed in transfected cells
T1 sequence (P42866 whole entry): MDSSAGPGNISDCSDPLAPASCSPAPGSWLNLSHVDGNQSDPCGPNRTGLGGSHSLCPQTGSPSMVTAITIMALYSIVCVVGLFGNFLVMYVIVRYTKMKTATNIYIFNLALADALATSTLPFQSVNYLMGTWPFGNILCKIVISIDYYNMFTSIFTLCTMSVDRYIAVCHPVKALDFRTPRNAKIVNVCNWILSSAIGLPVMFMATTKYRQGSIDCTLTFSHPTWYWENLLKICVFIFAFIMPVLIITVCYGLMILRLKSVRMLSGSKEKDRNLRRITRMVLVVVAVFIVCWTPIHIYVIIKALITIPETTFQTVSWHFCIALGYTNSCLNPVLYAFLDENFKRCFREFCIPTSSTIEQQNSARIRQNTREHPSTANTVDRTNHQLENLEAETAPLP

human MOR [1] = target: T2, human MOR (Homo sapiens, UniProt P35372); assay: [35S]GTPγS binding assay, CHO membranes; type: biochemical; conditions: [35S]GTPγS
T2 construct: expressed in transfected cells
T2 sequence (P35372 whole entry): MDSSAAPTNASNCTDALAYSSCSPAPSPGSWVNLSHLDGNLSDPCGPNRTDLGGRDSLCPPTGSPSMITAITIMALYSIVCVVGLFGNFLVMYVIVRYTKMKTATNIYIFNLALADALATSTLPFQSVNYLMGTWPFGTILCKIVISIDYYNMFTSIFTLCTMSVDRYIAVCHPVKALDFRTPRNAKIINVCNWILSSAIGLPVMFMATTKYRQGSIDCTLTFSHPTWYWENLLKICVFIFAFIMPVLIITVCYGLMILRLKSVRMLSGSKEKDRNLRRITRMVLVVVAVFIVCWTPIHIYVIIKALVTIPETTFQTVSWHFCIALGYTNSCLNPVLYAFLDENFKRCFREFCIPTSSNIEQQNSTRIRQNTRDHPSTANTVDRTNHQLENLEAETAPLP

human MOR [2] = target: T2, human MOR; assay: Schild regression vs DAMGO in [35S]GTPγS binding assay, CHO membranes; type: biochemical; conditions: for log (A'/A-1): Schild plot Figure S14d
mouse KOR, Gαi1 = mouse KOR, Gαi1 (Mus musculus, UniProt P33534); assay: TRUPATH BRET G protein assay, Gαi1; type: cell-based; conditions: read-out: Emax (%) Gαi1
Chain of mouse KOR, Gαi1 (P33534 whole entry): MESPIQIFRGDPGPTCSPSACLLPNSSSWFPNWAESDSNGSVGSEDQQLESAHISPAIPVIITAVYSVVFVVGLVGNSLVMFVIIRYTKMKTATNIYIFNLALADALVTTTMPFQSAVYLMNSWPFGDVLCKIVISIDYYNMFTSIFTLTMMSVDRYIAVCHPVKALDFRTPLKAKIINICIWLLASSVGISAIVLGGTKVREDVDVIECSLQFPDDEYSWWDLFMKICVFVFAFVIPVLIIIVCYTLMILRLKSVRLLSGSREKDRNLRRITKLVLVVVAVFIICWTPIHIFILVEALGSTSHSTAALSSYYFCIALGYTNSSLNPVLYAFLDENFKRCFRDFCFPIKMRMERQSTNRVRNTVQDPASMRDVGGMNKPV
Chain of mouse KOR, Gαi1 (P63096 2-354 partner): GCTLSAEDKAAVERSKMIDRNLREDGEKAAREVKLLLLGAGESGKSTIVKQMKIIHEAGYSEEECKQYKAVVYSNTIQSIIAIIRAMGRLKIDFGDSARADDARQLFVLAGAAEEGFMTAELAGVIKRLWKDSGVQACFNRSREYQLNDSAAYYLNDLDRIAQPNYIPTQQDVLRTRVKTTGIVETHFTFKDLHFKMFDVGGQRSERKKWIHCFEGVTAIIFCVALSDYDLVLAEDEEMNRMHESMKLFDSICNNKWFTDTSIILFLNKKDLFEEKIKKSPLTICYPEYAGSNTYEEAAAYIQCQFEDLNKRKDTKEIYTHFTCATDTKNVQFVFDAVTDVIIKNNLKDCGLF

mouse KOR, Gαi3 = mouse KOR, Gαi3 (Mus musculus, UniProt P33534); assay: TRUPATH BRET G protein assay, Gαi3; type: cell-based; conditions: read-out: Emax (%) Gαi3
Chain of mouse KOR, Gαi3 (P33534 whole entry): as the sequence (P33534 whole entry) above
Chain of mouse KOR, Gαi3 (P08754 2-354 partner): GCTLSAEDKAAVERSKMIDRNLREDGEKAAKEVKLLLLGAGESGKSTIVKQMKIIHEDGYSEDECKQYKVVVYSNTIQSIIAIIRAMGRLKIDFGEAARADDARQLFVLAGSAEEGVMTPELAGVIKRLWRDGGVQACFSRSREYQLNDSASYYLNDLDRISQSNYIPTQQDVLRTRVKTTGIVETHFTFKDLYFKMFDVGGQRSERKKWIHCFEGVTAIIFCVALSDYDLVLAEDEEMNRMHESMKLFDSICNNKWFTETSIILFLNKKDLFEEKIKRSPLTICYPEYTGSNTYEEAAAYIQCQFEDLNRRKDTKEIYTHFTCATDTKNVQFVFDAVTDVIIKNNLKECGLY

mouse KOR, Gαz = mouse KOR, Gαz (Mus musculus, UniProt P33534); assay: TRUPATH BRET G protein assay, Gαz; type: cell-based; conditions: Gαz subtype
Chain of mouse KOR, Gαz (P33534 whole entry): as the sequence (P33534 whole entry) above
Chain of mouse KOR, Gαz (P19086 2-355 partner): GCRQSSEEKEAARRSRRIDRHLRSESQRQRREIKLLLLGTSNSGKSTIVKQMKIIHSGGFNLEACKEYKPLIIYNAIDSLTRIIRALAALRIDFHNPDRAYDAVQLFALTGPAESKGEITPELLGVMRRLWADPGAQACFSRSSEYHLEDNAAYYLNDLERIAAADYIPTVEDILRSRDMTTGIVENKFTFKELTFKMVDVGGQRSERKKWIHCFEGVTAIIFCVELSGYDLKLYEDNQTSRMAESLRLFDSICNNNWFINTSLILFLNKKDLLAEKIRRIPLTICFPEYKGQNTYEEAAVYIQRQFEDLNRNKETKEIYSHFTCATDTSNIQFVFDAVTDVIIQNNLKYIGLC

mouse KOR, Gαgustducin = mouse KOR, Gαgustducin (Mus musculus, UniProt P33534); assay: TRUPATH BRET G protein assay, Gαgustducin; type: cell-based; conditions: read-out: Emax (%) Gαgustducin
Chain of mouse KOR, Gαgustducin (P33534 whole entry): as the sequence (P33534 whole entry) above
Chain of mouse KOR, Gαgustducin (A8MTJ3 2-354 partner): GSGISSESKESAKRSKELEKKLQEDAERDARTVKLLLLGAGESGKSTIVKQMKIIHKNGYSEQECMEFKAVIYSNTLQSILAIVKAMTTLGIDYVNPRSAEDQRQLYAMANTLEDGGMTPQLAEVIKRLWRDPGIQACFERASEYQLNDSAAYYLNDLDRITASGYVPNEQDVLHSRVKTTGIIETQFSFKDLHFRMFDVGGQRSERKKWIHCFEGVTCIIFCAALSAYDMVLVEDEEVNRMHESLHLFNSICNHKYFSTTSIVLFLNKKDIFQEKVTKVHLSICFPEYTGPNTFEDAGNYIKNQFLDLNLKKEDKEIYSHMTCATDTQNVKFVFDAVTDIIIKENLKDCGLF

male SWISS mice = assay: Paw thickness 60 min after formalin injection; type: in vivo, mouse; conditions: for Paw thickness: individual mice, listed as DNCP-ß-NalA (1)
Experimental: Sixty min after injection of formalin to male mice, maximal paw thickness of the right hind paw (i.e., formalin-injected hind paw) was measured using a digital micrometer (FixPoint, Vienna, Austria). Data are expressed in mm.

human KOR Q115A [3] = target: T3, human KOR Q115A (Homo sapiens, UniProt P41145, Q115A); type: cell-based; conditions: HEK-293T
T3 construct: FLAG; expressed in transfected cells; host or cells: HEK293 / HEK293T, transient
T3 sequence (P41145 whole entry Q115A): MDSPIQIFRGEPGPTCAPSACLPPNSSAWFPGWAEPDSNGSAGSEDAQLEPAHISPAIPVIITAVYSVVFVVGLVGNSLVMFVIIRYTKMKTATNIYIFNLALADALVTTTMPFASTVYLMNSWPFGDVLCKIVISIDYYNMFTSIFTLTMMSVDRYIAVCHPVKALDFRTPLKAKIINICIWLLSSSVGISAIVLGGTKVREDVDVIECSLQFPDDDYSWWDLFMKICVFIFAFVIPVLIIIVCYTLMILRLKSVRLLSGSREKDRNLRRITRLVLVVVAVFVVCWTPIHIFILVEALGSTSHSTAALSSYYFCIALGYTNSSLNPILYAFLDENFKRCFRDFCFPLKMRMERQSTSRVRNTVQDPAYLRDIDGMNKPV

human KOR I135A [4] = target: T4, human KOR I135A (Homo sapiens, UniProt P41145, I135A); type: cell-based; conditions: HEK-293T
T4 construct: FLAG; expressed in transfected cells; host or cells: HEK293 / HEK293T, transient
T4 sequence (P41145 whole entry I135A): as the sequence (P41145 whole entry Q115A) above, with A115Q, I135A counted along it

human KOR M142A = target: T5, human KOR M142A (Homo sapiens, UniProt P41145, M142A); type: cell-based; conditions: HEK-293T
T5 construct: FLAG; expressed in transfected cells; host or cells: HEK293 / HEK293T, transient
T5 sequence (P41145 whole entry M142A): as the sequence (P41145 whole entry Q115A) above, with A115Q, M142A counted along it

human KOR K227A [5] = target: T6, human KOR K227A (Homo sapiens, UniProt P41145, K227A); type: cell-based; conditions: HEK-293T
T6 construct: FLAG; expressed in transfected cells; host or cells: HEK293 / HEK293T, transient
T6 sequence (P41145 whole entry K227A): as the sequence (P41145 whole entry Q115A) above, with A115Q, K227A counted along it

human KOR E209A = target: T7, human KOR E209A (Homo sapiens, UniProt P41145, E209A); type: cell-based; conditions: HEK-293T, KOR E209A
T7 construct: FLAG; expressed in transfected cells; host or cells: HEK293 / HEK293T, transient
T7 sequence (P41145 whole entry E209A): as the sequence (P41145 whole entry Q115A) above, with A115Q, E209A counted along it

human KOR H304A [6] = target: T8, human KOR H304A (Homo sapiens, UniProt P41145, H304A); type: cell-based; conditions: HEK-293T
T8 construct: FLAG; expressed in transfected cells; host or cells: HEK293T
T8 sequence (P41145 whole entry H304A): as the sequence (P41145 whole entry Q115A) above, with A115Q, H304A counted along it

human KOR L309A = target: T9, human KOR L309A (Homo sapiens, UniProt P41145, L309A); type: cell-based; conditions: HEK-293T, KOR L309A
T9 construct: FLAG; expressed in transfected cells; host or cells: HEK293T
T9 sequence (P41145 whole entry L309A): as the sequence (P41145 whole entry Q115A) above, with A115Q, L309A counted along it

human KOR Q115A [7] = target: T3, human KOR Q115A; assay: BRET β-arrestin-2 biosensor assay; type: cell-based
human KOR I135A [8] = target: T4, human KOR I135A; assay: BRET β-arrestin-2 biosensor assay; type: cell-based
human KOR K227A [9] = target: T6, human KOR K227A; assay: BRET β-arrestin-2 biosensor assay; type: cell-based
human KOR F293A = target: T10, human KOR F293A (Homo sapiens, UniProt P41145, F293A); assay: BRET β-arrestin-2 biosensor assay; type: cell-based
T10 construct: FLAG; expressed in transfected cells; host or cells: HEK293 / HEK293T, transient
T10 sequence (P41145 whole entry F293A): as the sequence (P41145 whole entry Q115A) above, with A115Q, F293A counted along it

human KOR E297A = target: T11, human KOR E297A (Homo sapiens, UniProt P41145, E297A); assay: BRET β-arrestin-2 biosensor assay; type: cell-based; conditions: KOR E297A
T11 construct: FLAG; expressed in transfected cells; host or cells: HEK293T
T11 sequence (P41145 whole entry E297A): as the sequence (P41145 whole entry Q115A) above, with A115Q, E297A counted along it

human KOR H304A [10] = target: T8, human KOR H304A; assay: BRET β-arrestin-2 biosensor assay; type: cell-based
human KOR Y312A = target: T12, human KOR Y312A (Homo sapiens, UniProt P41145, Y312A); assay: BRET β-arrestin-2 biosensor assay; type: cell-based
T12 construct: FLAG; expressed in transfected cells; host or cells: HEK293T
T12 sequence (P41145 whole entry Y312A): as the sequence (P41145 whole entry Q115A) above, with A115Q, Y312A counted along it

mouse KOR [11] = target: T13, mouse KOR (Mus musculus, UniProt P33534); assay: cell-based; design: expressed in transfected cells; conditions: HEK-293T, read-out: Emax cAMP assay
Target sequence in this assay (P33534 whole entry): as the sequence (P33534 whole entry) above

human KOR = human KOR (Homo sapiens, UniProt P41145); assay: [35S]GTPγS binding assay, CHO membranes; type: biochemical; design: expressed in transfected cells
Chain of human KOR (P41145 whole entry): as the sequence (P41145 whole entry Q115A) above, with A115Q counted along it

mouse KOR [12] = target: T13, mouse KOR; assay: cell-based; design: expressed in transfected cells; host or cells: HEK293T, transient; conditions: HEK-293T, read-out: Emax β-arrestin-2 recruitment
Target sequence in this assay (P33534 whole entry): as the sequence (P33534 whole entry) above
Target sequence in this assay (P32121 whole entry partner): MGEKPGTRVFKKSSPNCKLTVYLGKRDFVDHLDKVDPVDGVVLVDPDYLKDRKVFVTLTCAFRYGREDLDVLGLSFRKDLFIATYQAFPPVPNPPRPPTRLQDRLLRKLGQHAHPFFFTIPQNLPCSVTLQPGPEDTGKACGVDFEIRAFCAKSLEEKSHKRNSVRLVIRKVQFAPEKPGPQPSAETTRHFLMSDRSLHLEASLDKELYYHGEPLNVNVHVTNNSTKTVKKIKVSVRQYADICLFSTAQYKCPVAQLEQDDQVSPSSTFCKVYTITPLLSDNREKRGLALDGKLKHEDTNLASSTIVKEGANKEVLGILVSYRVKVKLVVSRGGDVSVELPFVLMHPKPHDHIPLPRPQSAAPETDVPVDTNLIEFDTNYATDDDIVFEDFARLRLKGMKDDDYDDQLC

SMILES: C=CCN1CC[C@]23c4c5ccc(O)c4O[C@H]2[C@H](NC(=O)[C@@H](Cc2ccccc2)NC(=O)[C@@H](NC(=O)[C@@H]2CSCC(=O)N[C@@H](Cc4ccc(O)cc4)C(=O)N[C@@H](C)C(=O)N[C@H](Cc4ccc(O)cc4)C(=O)N[C@@H]([C@@H](C)O)C(=O)N[C@@H]([C@@H](C)O)C(=O)N2)[C@@H](C)O)CC[C@@]3(O)[C@H]1C5 [DNCP-β-NalA(1)] ({CH2CO}-YA[dY]TTCT[dF]-X1; thioether N-6)
- log (A'/A-1) (mouse MOR; log B -6.5): 2.497
- log (A'/A-1) (mouse MOR; log B -7): 1.821
- log (A'/A-1) (mouse MOR; log B -7.5): 1.578
- log (A'/A-1) (mouse MOR; log B -8): 1.074
- average functional affinity (mouse MOR): 0.8 nM
- average functional affinity (mouse MOR; authors' response in peer review file): 0.794 nM
- Schild linear regression slope (mouse MOR; vs DAMGO): 0.9
- EC50 (M) MOR (human MOR [1]): no stimulation up to 10 µM
- log (A'/A-1) (human MOR [2]; log B -7): 1.45
- log (A'/A-1) (human MOR [2]; log B -7.5): 0.36
- log (A'/A-1) (human MOR [2]; log B -8): -0.07
- average functional affinity (human MOR [2]; from pA2): 13 nM
- Schild linear regression slope (human MOR [2]; vs DAMGO): 1.5
- Emax (mouse KOR, Gαi1): 81%
- Emax (mouse KOR, Gαi3): 77 ± 3%
- highest potency (mouse KOR, Gαz): picomolar range
- Emax (mouse KOR, Gαgustducin): 101 ± 5%
- Paw thickness (male SWISS mice; 0.8 µmol/kg): 3.47 mm and 4.51 mm and 3.9 mm and 4.44 mm and 3.64 mm and 4.36 mm
- reduction of paw thickness vs saline (male SWISS mice; 1.9 µmol kg^−1 s.c.): 12 ± 2%
- Paw thickness (male SWISS mice; 1.9 µmol/kg): 4.04 mm and 4.14 mm and 3.53 mm and 3.7 mm and 3.82 mm
- reduction of paw thickness vs saline (male SWISS mice; 3.8 µmol kg^−1 s.c.): 17 ± 3%
- antagonism of anti-inflammatory effect by nor-BNI (male SWISS mice; nor-BNI 13.6 µmol kg^−1 s.c. pretreatment): significantly reversed by pre-treatment with nor-BNI
- Emax (human KOR Q115A [3]): 90.2 ± 1.46%
- Emax (human KOR I135A [4]): 45.8 ± 1.95%
- Emax (human KOR M142A): 69.4 ± 1.97%
- Emax (human KOR K227A [5]): 47.9 ± 1.19%
- Emax (human KOR E209A): 99.31 ± 0.52%
- Emax (human KOR H304A [6]): 92.57 ± 0.43%
- Emax (human KOR L309A): 95.98 ± 0.44%
- Emax (human KOR Q115A [7]): 60 ± 1.71%
- BRET-βarresin2 recruitment (human KOR I135A [8]; Log [ligand] (M) -5, single replicates): 0.1789 and 0.1779 and 0.1349 and 0.1369 (2×)
- BRET-βarresin2 recruitment (human KOR I135A [8]; Log [ligand] (M) -6, single replicates): 0.1739 and 0.1699 and 0.1669 and 0.1229 and 0.1319 and 0.1359
- BRET-βarresin2 recruitment (human KOR I135A [8]; Log [ligand] (M) -7, single replicates): 0.1699 (2×) and 0.1609 and 0.1309 and 0.1289 and 0.1299
- BRET-βarresin2 recruitment (human KOR I135A [8]; Log [ligand] (M) -8, single replicates): 0.1669 and 0.1659 and 0.1729 and 0.1269 and 0.1239 and 0.1349
- BRET-βarresin2 recruitment (human KOR I135A [8]; Log [ligand] (M) -9, single replicates): 0.1669 (2×) and 0.1649 and 0.1249 and 0.1239 and 0.1259
- BRET-βarresin2 recruitment (human KOR I135A [8]; Log [ligand] (M) -10, single replicates): 0.1689 and 0.1639 (2×) and 0.1279 and 0.1309 and 0.1339
- BRET-βarresin2 recruitment (human KOR I135A [8]; Log [ligand] (M) -11, single replicates): 0.1699 and 0.1669 and 0.1689 and 0.1249 and 0.1279 (2×)
- BRET-βarresin2 recruitment (human KOR I135A [8]; Log [ligand] (M) -12, single replicates): 0.1519 and 0.1569 (2×) and 0.1249 (2×) and 0.1259
- Emax (human KOR K227A [9]): 16.9 ± 2.26%
- Emax (human KOR F293A): 26.5 ± 1.01%
- Emax (human KOR E297A): 64.6 ± 1.35%
- Emax (human KOR H304A [10]): 34.5 ± 1.18%
- Emax (%) β-arrestin-2 (human KOR Y312A): devoid of arrestin recruitment
- BRET-βarr2 recruitment (human KOR Y312A; Log [ligand] (M) -5, replicates): 0.2189 and 0.2059 and 0.2229 and 0.2169
- BRET-βarr2 recruitment (human KOR Y312A; Log [ligand] (M) -7, replicates): 0.2499 (2×) and 0.2479 and 0.2279 and 0.2289 and 0.2269
- BRET-βarr2 recruitment (human KOR Y312A; Log [ligand] (M) -8, replicates): 0.2479 and 0.2309 and 0.2579 and 0.2119 and 0.2179 and 0.2099
- BRET-βarr2 recruitment (human KOR Y312A; Log [ligand] (M) -9, replicates): 0.2369 and 0.2529 and 0.2379 and 0.2309 and 0.2499 and 0.2069
- BRET-βarr2 recruitment (human KOR Y312A; Log [ligand] (M) -10, replicates): 0.2429 and 0.2419 and 0.2489 and 0.2119 and 0.2309 and 0.2049
- BRET-βarr2 recruitment (human KOR Y312A; Log [ligand] (M) -11, replicates): 0.2319 and 0.2289 and 0.2379 and 0.2249 and 0.2229 and 0.2019
- BRET-βarr2 recruitment (human KOR Y312A; Log [ligand] (M) -12, replicates): 0.2219 and 0.2179 and 0.2429 and 0.2239 and 0.2299 and 0.2119
- Emax (mouse KOR [11]): 92 ± 1%
- Emax (human KOR): 83%
- Emax (mouse KOR [12]): 41%
